Patent publication US4330529A, “Antibacterial composition” (Fujisawa Pharmaceutical Co., Ltd., priority 1979, dated 1982)
Like-named read-outs stand apart in the source and are kept apart here.

Tests used:
[1] = system: Proteus mirabilis 1432-75; assay: MIC and FIC, Nutrient agar (Tests 2, 3); type: cell-based; settings: Proteus mirabilis, 143275, 20 h
[2] = system: Salmonella typhimurium 1406; assay: MIC and FIC, Nutrient agar (Tests 2, 3); type: cell-based; settings: Salmonella enterica, 20 h
[3] = system: Enterobacter cloacae 1401-4; assay: MIC and FIC, Nutrient agar (Tests 2, 3); type: cell-based; settings: Enterobacter cloacae, 14014; E. cloacae 1401-4; 20 h; read-out: MIC
[4] = system: Serratia marcescens 1421-4; assay: MIC and FIC, Nutrient agar (Tests 2, 3); type: cell-based; settings: Serratia marcescens, 14214, 20 h
[5] = system: Klebsiella pneumoniae NCTC 418; assay: MIC and FIC, Nutrient agar (Tests 2, 3); type: cell-based; settings: NCTC418, K. pneumoniae NCTC 418, 20 h
Procedure: (§9) After the incubation was carried out at 37° C. for 20 hours, MIC values were determined.

[6] = system: Staphylococcus epidermidis 1601-1; assay: MIC and FIC, Nutrient agar (Tests 2, 3); type: cell-based; settings: 16011, S. epidermidis 1601-1, 20 h
Procedure: as §9

[7] = system: Serratia marcescens 1421-4; assay: microbe, parasite or virus in culture; type: cell-based; settings: for FIC: in 1:1 mixture C
Procedure: (§1) Further, in order to observe the degree of synergistic antimicrobial activity, Fractional Inhibitory Concentration (FIC) values and FIC Index were calculated from the determined MIC values according to the following calculation method, respectively.
(§2) In the case that the combination ratio of a mixture of monosodium salt of 3-(N-acetyl-N-hydroxyamino)propylphosphonic acid and monosodium salt of nocardicin A is m:n (by weight), each of FIC values and FIC indexes was calculated according to the following equations. [formula]

[8] = system: Klebsiella pneumoniae 1391-1; assay: microbe, parasite or virus in culture; type: cell-based; settings: for FIC: in 1:1 mixture C
Procedure: as §1, §2

[9] = system: Pseudomonas aeruginosa 1101-63; assay: microbe, parasite or virus in culture; type: cell-based; settings: for FIC: in 1:1 mixture C
Procedure: as §1, §2

[10] = system: Serratia marcescens 1421-1; assay: microbe, parasite or virus in culture; type: cell-based; settings: for FIC: in 1:1 mixture C
Procedure: as §1, §2

[11] = system: Serratia marcescens 1421-3; assay: microbe, parasite or virus in culture; type: cell-based; settings: for FIC: in 1:1 mixture C
Procedure: as §1, §2

[12] = system: Pseudomonas aeruginosa 1101-7; type: in vivo, mice (ICR-strain male); settings: P. aeruginosa 1101-7; for FIC: in 1:1 mixture C, from ED50; for ED50: s.c. 1 h after i.p. inoculation, survival at one week
Procedure: (§3) ICR-strain male mice weighing 23-25 g (10 mice per one group) were used. A prescribed amount of the pathogenic bacteria suspended in 5% aqueous mucin suspension (0.5 ml.) was inoculated intraperitoneally into each mouse. One hour after the inoculation, the antibiotics as mentioned in the following table were administered subcutaneously, and then survival of the test mice was measured one week after the infection to determine ED50 value.
(§4) Incidentally, FIC values and FIC index in this in vivo test also calculated from the determined ED50 values according to the following calculation method.
(§5) On the basis of the fact that the combination ratio of a mixture of monosodium salt of 3-(N-acetyl-N- hydroxyamino)propylphosphonic acid and monosodium salt of nocardicin A is 1:1 (by weight), each of FIC values and FIC index was calculated according to the following equations.
(§6) FIC of monosodium salt of 3-(N-acetyl-N-hydroxyamino)propylphosphonic acid=1/2 C'ab/A'o
(§7) FIC of monosodium salt of nocardicin A=1/2 C'ab/B'o
(§8) FIC index=1/2 C'ab/A'o+1/2 C'ab/B'o

[13] = system: Pseudomonas aeruginosa 1101-5; type: in vivo, mice (ICR-strain male); settings: P. aeruginosa 1101-5; for FIC: in 1:1 mixture C, from ED50; for ED50: s.c. 1 h after i.p. inoculation, survival at one week
Procedure: as §3, §4, §5, §6, §7, §8

[14] = system: Klebsiella pneumoniae 1391-2; assay: MIC and FIC, Nutrient broth (Test 1); type: cell-based; settings: for FIC: in 1:1 mixture C
Procedure: as §1, §2

[15] = system: Pseudomonas aeruginosa 1101-66; assay: MIC and FIC, Nutrient broth (Test 1); type: cell-based; settings: for FIC: in 1:1 mixture C
Procedure: as §1, §2

[16] = system: Pseudomonas aeruginosa 1101-67; assay: MIC and FIC, Nutrient broth (Test 1); type: cell-based; settings: for FIC: in 1:1 mixture C
Procedure: as §1, §2

[17] = system: Klebsiella pneumoniae 1391-5; assay: MIC and FIC, Nutrient broth (Test 1); type: cell-based; settings: for FIC: in 1:1 mixture C
Procedure: as §1, §2

[18] = system: Klebsiella pneumoniae 1391-3; assay: MIC and FIC, Nutrient broth (Test 1); type: cell-based; settings: for FIC: in 1:1 mixture C
Procedure: as §1, §2

[19] = system: Pseudomonas aeruginosa 1101-68; assay: MIC and FIC, Nutrient broth (Test 1); type: cell-based; settings: for FIC: in 1:1 mixture C
Procedure: as §1, §2

Escherichia coli 1341-35 = assay: MIC and FIC, Nutrient broth (Test 1); type: cell-based; settings: for FIC: in 1:1 mixture C
Procedure: as §1, §2

Escherichia coli 1341-27 = assay: MIC and FIC, Nutrient broth (Test 1); type: cell-based; settings: for FIC: in 1:1 mixture C
Procedure: as §1, §2

[20] = system: Pseudomonas aeruginosa 1101-64; assay: MIC and FIC, Nutrient broth (Test 1); type: cell-based; settings: for FIC: in 1:1 mixture C
Procedure: as §1, §2

[21] = system: Serratia marcescens 1421-5; assay: MIC and FIC, Nutrient broth (Test 1); type: cell-based; settings: for FIC: in 1:1 mixture C
Procedure: as §1, §2

Staphylococcus aureus 3 = assay: MIC and FIC, Nutrient agar (Tests 6, 7); type: cell-based; settings: Staphylococcus aureus; S. aureus 3; 18 h; read-out: MIC
Procedure: (§10) FIC values and FIC Index were calculated in substantially the same manner as described in Test 1.

Enterobacter aerogenes 7 = assay: MIC and FIC, Nutrient agar (Tests 6, 7, 9); type: cell-based; settings: Klebsiella aerogenes; E. aerogenes 7; 18 h; read-out: MIC
Procedure: as §10

Citrobacter freundii 35 = assay: MIC and FIC, Nutrient agar (Tests 6, 7, 9); type: cell-based; settings: Citrobacter freundii, 35, 18 h

Compound: CC1(C)S[C@@H]2[C@H](NC(=O)C(C(=O)O)c3ccsc3)C(=O)N2[C@H]1C(=O)O (stereo partly drawn) [B (Table 4), ticarcillin]
- MIC [1]: 0.78 µg/mL
- MIC ([2]; TYPHIMURIUM): 1.56 µg/mL
- MIC [3]: 50 µg/mL
- MIC [4]: 25 µg/mL
- MIC [5]: 100 µg/mL
- MIC [6]: 3.13 µg/mL

Compound: N[C@H](CCOc1ccc(/C(=N/O)C(=O)N[C@H]2CN([C@@H](C(=O)O)c3ccc(O)cc3)C2=O)cc1)C(=O)O [B (Table 1), nocardicin A]
- MIC [1]: 3.13 µg/mL
- FIC ([7]; S. marcescens 1421-4): 0.063
- MIC ([7]; Serratia marcescens, 14214, S. marcescens 1421-4, broth, 20 h, read-out: MIC): 400 µg/mL
- FIC ([8]; K. pneumoniae 1391-1): 0.063
- MIC ([8]; Klebsiella pneumoniae, 13911, K. pneumoniae 1391-1, 20 h, read-out: MIC): 800 µg/mL
- FIC ([9]; P. aeruginosa 1101-63): 0.125
- MIC ([9]; Pseudomonas aeruginosa, 110163, P. aeruginosa 1101-63, 20 h, read-out: MIC): 400 µg/mL
- FIC ([10]; S. marcescens 1421-1): 0.063
- MIC ([10]; Serratia marcescens, 14211, S. marcescens 1421-1, 20 h, read-out: MIC): 100 µg/mL
- FIC ([11]; S. marcescens 1421-3): 0.125
- MIC ([11]; Serratia marcescens, 14213, S. marcescens 1421-3, 20 h, read-out: MIC): 400 µg/mL
- FIC [12]: 0.083
- ED50 [12]: 15.0 mg/mouse
- FIC [13]: 0.273
- ED50 [13]: 1.3 mg/mouse
- MIC ([2]; S. typhimurium 1406, read-out: MIC): 25 µg/mL
- FIC ([14]; K. pneumoniae 1391-2): 0.250
- MIC ([14]; Klebsiella pneumoniae, 13912, K. pneumoniae 1391-2, 20 h, read-out: MIC): 800 µg/mL
- FIC ([15]; P. aeruginosa 1101-66): 0.250
- MIC ([15]; Pseudomonas aeruginosa, 110166, P. aeruginosa 1101-66, 20 h, read-out: MIC): 100 µg/mL
- FIC ([16]; P. aeruginosa 1101-67): 0.250
- MIC ([16]; Pseudomonas aeruginosa, 110167, P. aeruginosa 1101-67, 20 h, read-out: MIC): 200 µg/mL
- FIC ([17]; K. pneumoniae 1391-5): 0.125
- MIC ([17]; Klebsiella pneumoniae, 13915, K. pneumoniae 1391-5, 20 h, read-out: MIC): 800 µg/mL
- FIC ([18]; K. pneumoniae 1391-3): 0.250
- MIC ([18]; Klebsiella pneumoniae, 13913, K. pneumoniae 1391-3, 20 h, read-out: MIC): 800 µg/mL
- FIC ([19]; P. aeruginosa 1101-68): 0.250
- MIC ([19]; Pseudomonas aeruginosa, 110168, P. aeruginosa 1101-68, 20 h, read-out: MIC): 100 µg/mL
- FIC (Escherichia coli 1341-35; E. coli 1341-35): 0.250
- MIC (Escherichia coli 1341-35; Escherichia coli, 134135, E. coli 1341-35, 20 h, read-out: MIC): 100 µg/mL
- FIC (Escherichia coli 1341-27; E. coli 1341-27): 0.250
- MIC (Escherichia coli 1341-27; Escherichia coli, 134127, E. coli 1341-27, 20 h, read-out: MIC): 100 µg/mL
- FIC ([20]; P. aeruginosa 1101-64): 0.125
- MIC ([20]; Pseudomonas aeruginosa, 110164, P. aeruginosa 1101-64, 20 h, read-out: MIC): 200 µg/mL
- FIC ([21]; S. marcescens 1421-5): 0.063
- MIC ([21]; Serratia marcescens, 14215, S. marcescens 1421-5, 20 h, read-out: MIC): 200 µg/mL
- MIC [4]: 25 µg/mL
- MIC [5]: 200 µg/mL

Compound: NC[C@H]1O[C@H](O[C@H]2[C@H](O)[C@@H](O[C@H]3O[C@H](CO)[C@@H](O)[C@H](N)[C@H]3O)[C@H](N)C[C@@H]2N)[C@H](N)C[C@@H]1O [B (Table 9), Tobramycin]
- MIC (Staphylococcus aureus 3): 0.39 µg/mL
- MIC (Enterobacter aerogenes 7): 6.25 µg/mL
- MIC (Citrobacter freundii 35): 3.13 µg/mL

Compound: CC(=O)N(O)CCCP(=O)(O)O [A (Table 1), 3-(N-acetyl-N-hydroxyamino)propylphosphonic acid]
- FIC ([7]; S. marcescens 1421-4): < 0.031
- MIC ([7]; Serratia marcescens, 14214, 20 h): > 800 µg/mL
- FIC ([8]; K. pneumoniae 1391-1): 0.125
- MIC ([8]; Klebsiella pneumoniae, 13911, 20 h): 400 µg/mL
- FIC ([9]; P. aeruginosa 1101-63): 0.063
- MIC ([9]; Pseudomonas aeruginosa, 110163, 20 h): 800 µg/mL
- FIC ([10]; S. marcescens 1421-1): < 0.008
- MIC ([10]; Serratia marcescens, 14211, 20 h): > 800 µg/mL
- FIC ([11]; S. marcescens 1421-3): < 0.063
- MIC ([11]; Serratia marcescens, 14213, 20 h): > 800 µg/mL
- FIC [12]: < 0.063
- ED50 [12]: > 20 mg/mouse
- FIC [13]: < 0.018
- ED50 [13]: > 20 mg/mouse
- FIC ([14]; K. pneumoniae 1391-2): < 0.250
- MIC ([14]; Klebsiella pneumoniae, 13912, 20 h): > 800 µg/mL
- FIC ([15]; P. aeruginosa 1101-66): 0.125
- MIC ([15]; Pseudomonas aeruginosa, 110166, 20 h): 200 µg/mL
- FIC ([16]; P. aeruginosa 1101-67): 0.250
- MIC ([16]; Pseudomonas aeruginosa, 110167, 20 h): 200 µg/mL
- FIC ([17]; K. pneumoniae 1391-5): 0.250
- MIC ([17]; Klebsiella pneumoniae, 13915, 20 h): 400 µg/mL
- FIC ([18]; K. pneumoniae 1391-3): 0.250
- MIC ([18]; Klebsiella pneumoniae, 13913, 20 h): 800 µg/mL
- FIC ([19]; P. aeruginosa 1101-68): 0.031
- MIC ([19]; Pseudomonas aeruginosa, 110168, 20 h): 800 µg/mL
- FIC (Escherichia coli 1341-35; E. coli 1341-35): 0.250
- MIC (Escherichia coli 1341-35; Escherichia coli, 134135, 20 h): 100 µg/mL
- FIC (Escherichia coli 1341-27; E. coli 1341-27): 0.125
- MIC (Escherichia coli 1341-27; Escherichia coli, 134127, 20 h): 200 µg/mL
- FIC ([20]; P. aeruginosa 1101-64): < 0.031
- MIC ([20]; Pseudomonas aeruginosa, 110164, 20 h): > 800 µg/mL
- FIC ([21]; S. marcescens 1421-5): < 0.016
- MIC ([21]; Serratia marcescens, 14215, 20 h): > 800 µg/mL
